Experimental data from EP4772509A1, “KINESIN KIF18A INHIBITOR, AND APPLICATION THEREOF” (Shanghai Apeiron Therapeutics Company Limited, priority 2023, dated 2025).
Several values for one entry are separate records, joined by “and”; a condition that tells them apart may be missing. Identical values can stand only once.

These compounds were tested against T1, Human KIF18A (amino acid sequence 1-417) (Homo sapiens, UniProt Q8NI77) (assay: Enzymatic activity test (ADP-Glo, microtubule-stimulated ATPase)). Conditions: 60 µg/mL microtubules, 25 µM ATP, 2.5 nM KIF18A protein, 120 min at ambient temperature, chemiluminescence; read-out: KIF18A IC50.
T1 construct: purchased Viva Biotech (Shanghai) Ltd
T1 sequence (Q8NI77 1-417): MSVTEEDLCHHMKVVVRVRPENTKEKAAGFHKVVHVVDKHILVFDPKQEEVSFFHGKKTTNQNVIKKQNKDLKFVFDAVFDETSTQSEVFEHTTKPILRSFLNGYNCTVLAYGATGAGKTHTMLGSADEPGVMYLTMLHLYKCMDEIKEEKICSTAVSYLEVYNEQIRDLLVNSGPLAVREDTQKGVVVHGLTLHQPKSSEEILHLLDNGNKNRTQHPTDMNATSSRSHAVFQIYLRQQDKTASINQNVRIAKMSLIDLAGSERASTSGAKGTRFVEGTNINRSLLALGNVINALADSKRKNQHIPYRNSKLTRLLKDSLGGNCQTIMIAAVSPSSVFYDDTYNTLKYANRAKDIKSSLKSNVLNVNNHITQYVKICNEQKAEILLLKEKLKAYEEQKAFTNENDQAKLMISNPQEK
Assay type: biochemical
Protocol: Materials: Human KIF18A (amino acid sequence 1-417) was purchased from Viva Biotech (Shanghai) Ltd.; the ADP-Glo™ protein kinase kit was acquired from Promega, USA; tubulin was sourced from Cytoskeleton, USA; and the 384-well assay plate and Envision multifunctional microplate reader were obtained from PerkinElmer, USA.
Enzymatic Activity Test: The compound powder was dissolved in DMSO to prepare a stock solution of 10 mM. Then gradient dilution was performed for the compounds in the microplate to achieve a final concentration of 0-10 µM. Then, 2.5 µL each of tubulin, compound, ATP, and KIF18A protein were added to the microplate in sequence for reaction at ambient temperature for 120 min. The final concentrations in the enzyme reaction were 60 µg/mL for microtubules, 25 µM for ATP, and 2.5 nM for KIF18A protein. After the enzyme reaction, 10 µL of ADP-GLO reaction reagent was added to each well and incubated at room temperature for 30 min. After that, 20 µL of detection reagent was added to each well and incubated at room temperature for 30 min in the dark. Finally, chemiluminescence detection was performed using the PerkinElmer Envision.

IC50	Compound
309 nM	Cc1cc2nc(n1)N1CCC(F)(F)C(/C=C\CC3CCN(CC3)c3cc(NS(=O)(=O)CCO)ccc3-c3cn-2nn3)C1 (single isomer, unassigned) [Example 84A, N-((3^4Z,7Z)-1^4,1^4-difluoro-2^6-methyl-3^1H-2(2,4)-pyrimidin-1(1,3),5(1,4)-dipiperidin-3(1,4)-triazole-4(1,2)-benzocyclooct-7-en-4^4-yl)-2-hydroxyethane-1-sulfonamide]
251 nM	Cc1cc2nc(n1)NCC(C)C=CC1=CC=C(S1)c1cc(NS(=O)(=O)CCO)ccc1C(=O)N2 (stereo not shown) [Example 70, N-(5^6,8-dimethyl-3-oxo-4,6-diaza-5(4,2)-pyrimidin-1(2,5)-thiophene-2(1,2)-benzenecyclodec-9-en-25-yl)-2-hydroxyeth ane-1-sulfonamide]
97 nM	COc1cc2nc(n1)N1CCC(F)(F)C(/C=C\CC3=CC=C(S3)c3cc(NS(=O)(=O)CCO)ccc3C(=O)N2)C1 (stereo not shown) [Example 64, N-(1^4,1^4-difluoro-2^6-methoxy-4-oxo-3-aza-2(2,4)-pyrimidin-1(1,3)-piperidin-6(2,5)-thiophene-5(1,2)-benzoazacyclon-8-en-5^4-yl)-2-hydroxyethane-1-sulfonamide]
223 nM	COc1cc2nc(n1)N1CCC(F)(F)C(CCCc3c(F)cc(cc3F)-c3cc(NS(=O)(=O)CCO)ccc3C(=O)N2)C1 (stereo not shown) [Example 59, 2-hydroxy-N-(1^4,1^4,6^3,6^5-tetrafluoro-2^6-methoxy-4-oxo-3-aza-2(2,4)-pyrimidin-1(1,3)-piperidin-5(1,2),6(1,4)-diphenylheterocyclononane-54-yl)ethane-1-sulfonamide]
113 nM	2-Hydroxy-N-(8-methyl-2^1,3-dione-2^2,2^3-dihydro-2^1H-4,6-diaza-5(2,6)-pyridin-1(1,4)-piperidin-2(5,4)-indenoundecan e-9-en-2^7-yl)ethane-1-sulfonamide [Example 38]
40 nM	COc1cc2nc(n1)N1CCC(F)(F)C(/C=C\C3=CC=C(S3)c3cc(NS(=O)(=O)CCO)ccc3C(=O)N2)C1 (stereo not shown) [Example 60, N-(2^4,2^4-difluoro-1^1-methoxy-7-oxo-8-aza-1(2,4)-pyrimidin-2(1,3)-piperidin-5(2,5)-thiophene-6(1,2)-benzenecyclooctane-3-en-6^5-yl)-2-hydroxyethane-1-sulfonamide]
35 nM	Cc1cc2nc(n1)N1CCC(F)(F)C(/C=C\C3=CC=C(S3)c3cc(NS(=O)(=O)CCO)ccc3C(=O)N2)C1 (stereo not shown) [Example 62, N-(2^4,2^4-difluoro-1^6-methyl-7-oxo-8-aza-1(2,4)-pyrimidin-2(1,3)-piperidin-5(2,5)-thiophene-6(1,2)-benzeneheterocyclooct-3-en-6^5-yl)-2-hydroxyethane-1-sulfonamide]

Second part, the compound before the results:

Compound	IC50
COc1cc2nc(n1)N1CCC(F)(F)C(CCCC3=CC=C(S3)c3cc(NS(=O)(=O)CCO)ccc3C(=O)N2)C1 (stereo not shown) [Example 65, N-(1^4,1^4-difluoro-2^6-methoxy-4-oxo-3-aza-2(2,4)-pyrimidin-1(1,3)-piperidin-6(2,5)-thiophene-5(1,2)-benzoazacyclononane-5^4-yl)-2-hydroxyethane-1-sulfonamide]	135 nM
Cc1cc2nc(n1)N1CCC(F)(F)C(CCCc3csc(c3)-c3cc(NS(=O)(=O)CCO)ccc3C(=O)N2)C1 (stereo not shown) [Example 68, N-(1^4,1^4-difluoro-2^6-methyl-4-oxo-3-aza-2(2,4)-pyrimidin-1(1,3)-piperidin-6(2,4)-thiophene-5(1,2)-benzoazacyclononane-5^4-yl)-2-hydroxyethane-1-sulfonamide]	155 nM
Cc1cc2nc(n1)N1CCC(F)(F)C(/C=C/CCC3CCN(CC3)c3cc(NS(=O)(=O)CCO)ccc3-n3cc-2nn3)C1 (racemic) [Example 86, N-((3^4,8)-1^4,1^4-difluoro-2^6-methyl-3^1H-2(2,4)-pyrimidin-1(1,3),5(1,4)-dipiperidin-3(4,1)-triazole-4(1,2)-benzoazacyclononane-8-en-44-yl)-2-hydroxyethane-1-sulfonamide]	352 nM
Cc1cc2nc(n1)N1CCC(F)(F)C(CCC3=CC=C(S3)c3cc(NS(=O)(=O)CCO)ccc3C(=O)N2)C1 (stereo not shown) [Example 63, N-(2^4,2^4-difluoro-1^6-methyl-7-oxo-8-aza-1(2,4)-pyrimidin-2(1,3)-piperidin-5(2,5)-thiophene-6(1,2)-benzeneheterocyclooctan-6^5-yl)-2-hydroxyethane-1-sulfonamide]	126 nM
Cc1cc2nc(n1)N1CCC(F)(F)C(CCc3csc(c3)-c3cc(NS(=O)(=O)CCO)ccc3C(=O)N2)C1 (stereo not shown) [Example 69, N-(2^4,2^4-difluoro-1^6-methyl-7-oxo-8-aza-1(2,4)-pyrimidin-2(1,3)-piperidin-5(2,4)-thiophene-6(1,2)-benzeneheterocyclooctan-6^5-yl)-2-hydroxyethane-1-sulfonamide]	45 nM
Cc1cc2nc(n1)N1CCC(F)(F)C(/C=C\CC3CCN(CC3)c3cc(NS(=O)(=O)CCO)ccc3-c3cn-2nn3)C1 (single isomer, unassigned) [Example 84B, N-((3^4Z,7Z)-1^4,1^4-difluoro-2^6-methyl-3^1H-2(2,4)-pyrimidin-1(1,3),5(1,4)-dipiperidin-3(1,4)-triazole-4(1,2)-benzocyclooct-7-en-4^4-yl)-2-hydroxyethane-1-sulfonamide]	258 nM
Cc1cc2nc(n1)N1CCC(F)(F)C(C=CCc3csc(c3)-c3cc(NS(=O)(=O)CCO)ccc3C(=O)N2)C1 (stereo not shown) [Example 66, N-(1^4,1^4-difluoro-2^6-methyl-4-oxo-3-aza-2(2,4)-pyrimidin-1(1,3)-piperidin-6(2,4)-thiophene-5(1,2)-benzoazacyclon-8-en-5^4-yl)-2-hydroxyethane-1-sulfonamide]	43 nM
Cc1cc2nc(n1)N1CCC(F)(F)C(/C=C/CC3CC4(C3)CN(C4)c3cc(NS(=O)(=O)CCO)ccc3C(=O)N2)C1 (stereo not shown) [Example 47, N-(6^4,6^4-difluoro-5^1-methyl-3-oxo-4-aza-5(4,2)-pyrimidin-6(1,3)-piperidin-1(1,3)-azetidin-2(1,2)-benzene-10(1,3)-cyclobutyramide-7-en-2^5-yl)-2-hydroxyethane-1-sulfonamide]	566 nM and 625 nM
COc1cc2nc(n1)N1CCC(F)(F)C(CCC3=CC=C(S3)c3cc(NS(=O)(=O)CCO)ccc3C(=O)N2)C1 (stereo not shown) [Example 61, N-(2^4,2^4-difluoro-1^6-methoxy-7-oxo-8-aza-1(2,4)-pyrimidin-2(1,3)-piperidin-5(2,5)-thiophene-6(1,2)-benzeneheterocyclooctan-6^3-yl)-2-hydroxyethane-1-sulfonamide]	60 nM

What follows are compounds tested on OVCAR3 cells (assay: Cell proliferation activity test (CyQUANT Direct)). Conditions: 3 days, 0.2% DMSO, CyQUANT fluorescence.
Assay type: cell-based
Protocol: Materials and Cells: OVCAR3 cells were purchased from Nanjing Cobioer Biosciences Co., Ltd. RPMI-1640 medium, fetal bovine serum, and the CyQUANT Direct Cell Proliferation Assay kit were purchased from Thermo Fisher Scientific, USA; 96-well cell culture plates were sourced from Corning, USA.
Cell Culture: OVCAR3 cells were cultured with RPMI-1640 medium containing 10% fetal bovine serum and incubated in a 5% CO2 incubator at 37°C. Only cells in the logarithmic growth phase could be used for the test.
OVCAR3 cells were inoculated into a 96-well cell culture plate at 90 µL per well and incubated overnight in a 5% CO2 incubator at 37°C. The compound powder was dissolved in DMSO to prepare a stock solution of 10 mM. Then gradient dilution was performed for the compounds in the microplate to achieve a final concentration of 0-10 µM. 10 µL of cell culture medium containing compounds was added to each well to make the final DMSO content 0.2%. The cell plates were incubated in a 5% CO2 incubator at 37°C for 3 days. 100 µL of CyQUANT detection reagent was added to each well, reacted at 37°C for 60 min, and fluorescence detection was performed using the PerkinElmer Envision.

IC50	Compound
26 nM	Cc1cc2nc(n1)N1CCC(F)(F)C(/C=C\CC3CCN(CC3)c3cc(NS(=O)(=O)CCO)ccc3-c3cn-2nn3)C1 (single isomer, unassigned) [Example 84A, N-((3^4Z,7Z)-1^4,1^4-difluoro-2^6-methyl-3^1H-2(2,4)-pyrimidin-1(1,3),5(1,4)-dipiperidin-3(1,4)-triazole-4(1,2)-benzocyclooct-7-en-4^4-yl)-2-hydroxyethane-1-sulfonamide]
472 nM	Cc1cc2nc(n1)N1CCC(F)(F)C(/C=C\CC3CCN(CC3)c3cc(NS(=O)(=O)CCO)ccc3-c3cn-2nn3)C1 (single isomer, unassigned) [Example 84B, N-((3^4Z,7Z)-1^4,1^4-difluoro-2^6-methyl-3^1H-2(2,4)-pyrimidin-1(1,3),5(1,4)-dipiperidin-3(1,4)-triazole-4(1,2)-benzocyclooct-7-en-4^4-yl)-2-hydroxyethane-1-sulfonamide]

Same assay, conditions: Homo sapiens, OVCAR-3, 72 h, 3 days, 0.2% DMSO, CyQUANT fluorescence

IC50	Compound
34 nM	Cc1cc2nc(n1)N1CCC(F)(F)C(C=CCC3CCN(CC3)c3cc(NS(=O)(=O)CCO)ccc3-n3cc-2nn3)C1 (stereo not shown) [Example 81, N-((3^4,7)-1^4,1^4-difluoro-2^6-methyl-3^1H-2(2,4)-pyrimidin-1(1,3),5(1,4)-dipiperidin-3(4,1)-triazole-4(1,2)-benzocyclooct-7-en-44-yl)-2-hydroxyethane-1-sulfonamide]
2580 nM	Cc1cc2nc(n1)N1CCC(F)(F)C(/C=C\c3ccc(cc3)-c3cc(NS(=O)(=O)CCO)ccc3C(=O)N2)C1 (stereo not shown) [Example 43, N-(2^4,2^4-difluoro-1^6-methyl-7-oxo-8-aza-1(2,4)-pyrimidin-2(1,3)-piperidin-5(1,4),6(1,2)-diphenylcyclooct-3-en-6^5-yl)-2-hydroxyethane-1-sulfonamide]
100 nM	Cc1cc2nc(n1)N1CCC(F)=C(/C=C/CC3CCN(CC3)c3cc(NS(=O)(=O)CCO)ccc3-n3cc-2nn3)C1 [Example 83, N-((3^4Z,7E)-1^4-fluoro-2^6-methyl-1^1,1^2,1^3,16-tetrahydro-3^1H-2(2,4)-pyrimidin-1(1,5)-pyridin-5(1,4)-piperidin-3(4,1)-triazole-4(1,2)-benzylcyclooct-7-en-4^4-yl)-2-hydroxyethane-1-sulfonamide]

Compound	IC50
Cc1cc2nc(n1)N1CCC(F)(F)C(/C=C/CCC3CCN(CC3)c3cc(NS(=O)(=O)CCO)ccc3-n3cc-2nn3)C1 (racemic) [Example 86, N-((3^4,8)-1^4,1^4-difluoro-2^6-methyl-3^1H-2(2,4)-pyrimidin-1(1,3),5(1,4)-dipiperidin-3(4,1)-triazole-4(1,2)-benzoazacyclononane-8-en-44-yl)-2-hydroxyethane-1-sulfonamide]	63 nM
